Experimental data as given in US11345711B2, “8,9-dihydroimidazo[1,2-a]pyrimido[5,4-e]pyrimidin-5(6H)-ones” (IMPACT THERAPEUTICS (SHANGHAI), INC, priority 2016, dated 2022).
Like-named read-outs stand apart in the source and are kept apart here.

Experiments:
NCI-H1299 cells = assay: MTT based cell viability assay on NCI-H1299 cells; conditions: Homo sapiens, read-out: IC50, growth inhibition of NCI-H1299 cells
Procedure: Determination of the cell growth inhibiting activity of 6-(2-chlorophenyl)-2-((4-(4-methylpiperazin-1-yl)phenyl)amino)-8,9-dihydroimidazo[1,2-a]pyrimido[5,4-e]pyrimidin-5(6H)-one and analogs on NCI-H1299 cells using a MTT based cell viability assay
(§1) The thawed NCI-H1299 cells were cultured and passaged to the third generation, and the growth state was good and the confluence was about 90%, which began to be used in the experiment. The NCI-H1299 cells were digested with trypsin, centrifuged at 800 rpm for 5 min, the supernatant was discarded, resuspended with fresh culture group, and counted. 1000 Cells are seeded to each well of a 96-well plate. The cells are incubated at 37° C. in a 5% CO2 cell culture incubator overnight. The tested sample (including the tested compound and the reference compound AZD1775) was diluted continuously to 8 concentrations (the last concentration was negative control of DMSO) with a 1:3 and 1:10 dilution in DMSO respectively: 10 μM, 3.3 μM, 1 μM, 0.33 μM, 0.1 μM, 0.033 μM, 0.01 μM, 0 μM (the final concentration of DMSO was 1‰). 5 μL of each concentration was added to 120 μL of culture medium (25 times diluted), and the mixture was shaken well. The overnight cells were taken and the culture medium was removed, 195 μL of fresh culture medium was added to each well, and 5 μL of diluted culture medium containing the corresponding concentration of the tested sample was added respectively, and the culture plate was then placed in the 5% CO2 cell culture incubator at 37° C. for 3 d. After removing the original solution and adding 100 μL of fresh serum-free DMEM culture medium containing MTT (0.5 mg/mL) per well, the culture was continued. The original solution was removed after 4 hrs and 100 μl DMSO was added to each well. The 96-well cell culture plates were shaken away from light for 10 min and readed in a multifunctional reader at 552/630/690 nm to give absorption values (OD values). The data were analyzed using a commercial graphic software (Graph Pad Prism 5.0) and the inhibitory activity of the compound on cell proliferation was plotted in terms of cell survival and compound concentration. The IC50 values were fitted by the S-shaped dose-response curve equation as follows: Y=100/(1+10^(Log C−Log IC50)), where C was the concentration of testing compounds.

Wee1 (h) = Wee1 (h) (Homo sapiens, UniProt P30291); assay: Wee1 kinase (h) detection method, [γ-33P]-ATP filter assay; assay type: biochemical
Sequence of Wee1 (h) (P30291 whole entry): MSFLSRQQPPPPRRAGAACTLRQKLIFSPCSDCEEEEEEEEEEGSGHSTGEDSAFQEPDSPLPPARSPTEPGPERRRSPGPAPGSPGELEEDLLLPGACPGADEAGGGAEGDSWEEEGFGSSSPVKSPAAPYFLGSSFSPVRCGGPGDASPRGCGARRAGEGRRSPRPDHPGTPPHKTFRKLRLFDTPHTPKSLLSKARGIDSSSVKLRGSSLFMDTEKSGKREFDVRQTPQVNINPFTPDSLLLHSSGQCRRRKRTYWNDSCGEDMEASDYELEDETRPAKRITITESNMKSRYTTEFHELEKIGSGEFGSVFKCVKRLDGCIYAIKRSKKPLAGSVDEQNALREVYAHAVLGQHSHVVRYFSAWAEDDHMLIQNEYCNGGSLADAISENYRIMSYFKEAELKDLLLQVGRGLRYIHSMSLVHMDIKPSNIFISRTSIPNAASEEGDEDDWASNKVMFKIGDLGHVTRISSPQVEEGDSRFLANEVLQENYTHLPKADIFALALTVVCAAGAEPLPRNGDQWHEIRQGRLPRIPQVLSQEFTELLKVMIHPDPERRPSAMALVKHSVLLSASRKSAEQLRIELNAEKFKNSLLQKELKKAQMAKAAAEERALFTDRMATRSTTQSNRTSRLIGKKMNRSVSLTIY
Procedure: Determination of the inhibitory effect of 6-(2-chlorophenyl)-2-((4-(4-methylpiperazin-1-yl)phenyl)amino)-8,9-dihydroimidazo[1,2-a]pyrimido[5,4-e]pyrimidin-5(6H)-one and Analogs on the Enzyme Activity of Wee1 Kinase by Using the Wee1 Kinase (h) Detection Method
Then the stock solution of all compounds under test with 50× concentration in 100% DMSO was added to make the final concentration of 10/1/0.1/0.01 μM, and then mixed the mixture well. The reaction is initiated by the addition of the Mg/ATP mix. After incubation for 40 minutes at room temperature, the reaction is stopped by the addition of phosphoric acid to a concentration of 0.5%. […] Each compound sample is duplicated in duplicate. The negative control was lack of all the components of Wee1 enzyme, and the positive was addition of 30% phosphoric acid to terminate the reaction. The Wee1 inhibitor AZD1775 was detected at 10 μM at the same experiment condition.

LoVo cells = assay: MTT based cell viability assay on LoVo cells; conditions: Homo sapiens, LoVo, 72 h, 3 d, read-out: IC50, growth inhibition of LoVo cells
Procedure: Determination of the cell growth inhibiting activity of 6-(2-chlorophenyl)-2-((4-(4-methylpiperazin-1-yl)phenyl)amino)-8,9-dihydroimidazo[1,2-a]pyrimido[5,4-e]pyrimidin-5(6H)-one and analogs on LoVo cells using a MTT based cell viability assay
as §1, with “LoVo” for “NCI-H1299”, “medium,” for “group,”, “6000” for “1000”, “1%).” for “1‰).”, “C-Log” for “C−Log”

Structure (SMILES) | IC50 (NCI-H1299 cells; NCI-H1299, NCI-H1299 cells) [nM] | Inh. (%) of Wee1 kinase enzyme activity (Wee1 (h); C 0.01 μm compound) [%] | Inh. (%) of Wee1 kinase enzyme activity (Wee1 (h); C 0.1 μm compound) [%] | Inh. (%) of Wee1 kinase enzyme activity (Wee1 (h); C 1 μm compound) [%] | IC50 (LoVo cells) [nM] | IC50 (NCI-H1299 cells; NCI-H1299 cells) [nM]
CN(C)C1CCN(c2ccc(Nc3ncc4c(n3)N3CCN=C3N(c3c(Cl)cccc3Cl)C4=O)cc2Br)CC1 [Example 140, 6-(2,6-Dichlorophenyl)-2-((3-bromo-4-(4-(dimethylamino)piperidin-1-yl)phenyl)amino)-8,9-dihydroimidazo[1,2-a]pyrimido[5,4-e]pyrimidin-5(6H)-one] | 92.9 | 32 | 82 | 98 | 58.2 | –
C=CCN1C(=O)c2cnc(Nc3ccc(N4CCN(C)CC4)cc3)nc2N2CCN=C12 [Example 22, 6-Allyl-2-((4-(4-methylpiperazin-1-yl)phenyl)amino)-8,9-dihydroimidazo[1,2-a]pyrimido[5,4-e]pyrimidin-5(6H)-one] | – | – | – | 8 | > 100000 | > 10000
Cc1cc(Nc2ncc3c(n2)N2CCN=C2N(c2c(Cl)cccc2Br)C3=O)ccc1N1CCN(C)CC1 [Example 163, 6-(2-Bromo-6-chlorophenyl)-2-((3-methyl-4-(4-methylpiperazin-1-yl)phenyl)amino)-8,9-dihydroimidazo[1,2-a]pyrimido[5,4-e]pyrimidin-5(6H)-one] | – | 25 | 87 | 99 | 62.5 | 97.8
CC(=O)N1CCN(c2ccc(Nc3ncc4c(n3)N3CCN=C3N(c3c(F)cccc3Cl)C4=O)cc2)CC1 [Example 7, 2-((4-(4-Acetylpiperazin-1-yl)phenyl)amino)-6-(2-chloro-6-fluorophenyl)-8,9-dihydroimidazo[1,2-a]pyrimido[5,4-e]pyrimidin-5(6H)-one] | – | 31 | 84 | 96 | 1430 | 1260
CN1CCN(c2c(Cl)cc(Nc3ncc4c(n3)N3CCN=C3N(c3c(Cl)cccc3Cl)C4=O)cc2C(F)(F)F)CC1 [Example 152, 6-(2,6-Dichlorophenyl)-2-((3-chloro-4-(4-methylpiperazin-1-yl)-5-(trifluoromethyl)phenyl)amino)-8,9-dihydroimidazo[1,2-a]pyrimido[5,4-e]pyrimidin-5(6H)-one] | 1950 | – | – | 88 | 139 | –
Cc1cc(Nc2ncc3c(n2)N2CCN=C2N(c2c(F)cccc2Cl)C3=O)ccc1N1CCN(C)CC1 [Example 50, 6-(2-Chloro-6-fluorophenyl)-2-((3-methyl-4-(4-methylpiperazin-1-yl)phenyl)amino)-8,9-dihydroimidazo[1,2-a]pyrimido[5,4-e]pyrimidin-5(6H)-one] | 229 | 62 | 95 | 100 | 58.9 | –
CN1CCN(c2ccc(Nc3ncc4c(n3)N3CCN=C3N(c3ccccc3)C4=O)cc2)CC1 [Example 96, 6-Phenyl-2-((4-(4-methylpiperazin-1-yl)phenyl)amino)-8,9-dihydroimidazo[1,2-a]pyrimido[5,4-e]pyrimidin-5(6H)-one] | – | – | – | 29 | > 100000 | > 10000
CN(C)C1CCN(c2ccc(Nc3ncc4c(n3)N3CCN=C3N(c3c(F)cccc3Cl)C4=O)cc2Cl)CC1 [Example 117, 6-(2-Chloro-6-fluorophenyl)-2-((3-chloro-4-(4-(dimethylamino)piperidin-1-yl)phenyl)amino)-8,9-dihydroimidazo[1,2-a]pyrimido[5,4-e]pyrimidin-5(6H)-one] | 103 | 22 | 84 | 98 | 66.2 | –
Cc1cc(Nc2ncc3c(n2)N2CCN=C2N(c2c(Cl)cccc2Cl)C3=O)cc(C)c1N1CCN(C)CC1 [Example 158, 6-(2,6-Dichlorophenyl)-2-((3,5-dimethyl-4-(4-methylpiperazin-1-yl)phenyl)amino)-8,9-dihydroimidazo[1,2-a]pyrimido[5,4-e]pyrimidin-5(6H)-one] | 105 | 27 | 84 | 95 | 58.5 | –
CN(C)CCNc1ccc(Nc2ncc3c(n2)N2CCN=C2N(c2c(F)cccc2Cl)C3=O)cc1 [Example 108, 6-(2-Chloro-6-fluorophenyl)-2-((4-((2-(dimethylamino)ethyl)amino)phenyl)amino)-8,9-dihydroimidazo[1,2-a]pyrimido[5,4-e]pyrimidin-5(6H)-one] | 899 | – | – | 96 | 1500 | –
CN1CCC(c2ccc(Nc3ncc4c(n3)N3CCN=C3N(c3c(F)cccc3Cl)C4=O)cc2)CC1 [Example 114, 6-(2-Chloro-6-fluorophenyl)-2-((4-(1-methylpiperidin-4-yl)phenyl)amino)-8,9-dihydroimidazo[1,2-a]pyrimido[5,4-e]pyrimidin-5(6H)-one] | 233 | – | – | 98 | 105 | –
Cc1cccc(Cl)c1N1C(=O)c2cnc(Nc3ccc(N4CCN(C)CC4)cc3)nc2N2CCN=C21 [Example 5, 6-(2-Chloro-6-methylphenyl)-2-((4-(4-methylpiperazin-1-yl)phenyl)amino)-8,9-dihydroimidazo[1,2-a]pyrimido[5,4-e]pyrimidin-5(6H)-one] | – | – | – | 88 | 431 | 941
CN1CCCN(c2ccc(Nc3ncc4c(n3)N3CCN=C3N(c3c(F)cccc3Cl)C4=O)cc2)CC1 [Example 103, 6-(2-Chloro-6-fluorophenyl)-2-((4-(4-methyl-1,4-diazepan-1-yl)phenyl)amino)-8,9-dihydroimidazo[1,2-a]pyrimido[5,4-e]pyrimidin-5(6H)-one] | – | 30 | 70 | 92 | 678 | 1050
